2 molecules from article PMC8583417, “Evaluation of the Antimicrobial Efficacy of N-Acetyl-L-Cysteine, Rhamnolipids, and Usnic Acid—Novel Approaches to Fight Food-Borne Pathogens” (International Journal of Molecular Sciences, 2021) can be followed below.

The subject of one assay is E. coli 693/17. The experiment in a line: MIC for reduction of preformed biofilm (crystal violet staining). In kind it is cell-based, Escherichia coli. Particulars: for MICBR80: ≥80% reduction of preformed biofilm (18 h), 20 h with substance. Here is the method:
(§1) Ten concentrations of NAC, RLs, and UA were tested to determine the minimum inhibitory concentration for planktonic growth, and subsequently, the six highest concentrations were applied on preformed biofilms to evaluate the biofilm eradication ability of the compounds. MIC was defined as the lowest substance concentration able to inhibit at least 80% of microbial growth (MICPC80 for planktonic cells, MICBC80 for further growth of biofilm cells), inhibit 80% of metabolic activity (MICBM80 for biofilm metabolic activity, MICMPB80 for metabolic activity of preformed biofilm), prevent biofilm formation by at least 80% (MICBF80 for biofilm formation), or reduce a preformed biofilm by at least 80% (MICBR80 for biofilm reduction). The results of MICs are summarized in Table 1 (planktonic cells) and Table 2 (biofilm-associated cells).
(§2) The determination of MICs was performed according to Chlumsky et al.. Briefly, 96-well flat-bottomed microtiter plates were inoculated with 75 µL (for biofilm formation) or 100 µL (for preformed biofilm) of bacterial suspension (A625nm 0.08 to 0.1) in technical triplicates and were then carefully mixed with the dilution series of the test substances (24 h cultivation at 25 °C for S. Infantis, 37 °C for other strains) or were directly cultivated to preform biofilms (18 h). For a positive control of bacterial growth, the inoculum was mixed with a pure sterile medium. Furthermore, the sterile medium was included in the plate as a marker of potential microbial contamination. To evaluate planktonic cells growth (MICPC80) and further growth of biofilm cells (MICBC80), the optical density of the content of the microtiter plates was measured spectrophotometrically at 625 nm before and after 24 h (for biofilm formation) of cultivation or before and after additional 20 h incubation with the tested compound (for preformed biofilm). The difference of A625nm was considered as a measure of the ability of cells to grow in the presence of the tested substances. To evaluate the inhibition of biofilm formation (MICBF80) and reduction in preformed biofilms (MICBR80), biomass was quantified using crystal violet staining, and its metabolic activity (MICBM80 and MICMPB80) was estimated by using the MTT (thiazyl tetrazolium bromide, Sigma-Aldrich, USA) reduction assay, both measured spectrophotometrically at 595 nm.
(§3) All inhibitions were calculated using the formula of Chlumsky et al. below (Equation (1)):(1) A625(595)nm inhibition (%)=A625(595)nm (control) – A625(595)nm(natural substance)/A625(595)nm (control)× 100 where A625(595)nm (control) is the absorbance of bacterial suspension/biofilm itself, and A625(595)nm(natural substance) is the absorbance of the bacterial suspension/biofilm with the added natural substance (NAC, RLs, and UA).
(§4) When the minimum inhibitory concentration could not be determined, the MIC was established as >the highest tested concentration for NAC, RLs, and UA.

In a further assay the test system is S. aureus 816. Briefly: CLSM analysis, biofilm removal (preformed biofilm). In kind it is cell-based, Staphylococcus aureus. To be noted: for proportion of membrane-compromised cells: 20 h; for Thickness (µm) subCBM80: substance at subinhibitory concentration. As to the method:
(§5) Biofilm prevention and removal analyses were performed using previously determined minimum inhibitory and subinhibitory concentrations for metabolic activity (MICBM80, subCBM80; MICMPB80, subCMPB80) of NAC, RLs, and UA specific for each tested strain. Selected concentrations were used to evaluate the inhibition of biofilm formation (biofilm prevention) and the reduction in previously formed biofilms (biofilm removal) for the same set of microorganisms, with the exception of S. Infantis, which was excluded from the analysis due to its inability to form biofilm in the selected microtiter plate. Biofilm prevention and removal were observed using CLSM with specific staining to distinguish between live and membrane-compromised cells. Images were analyzed to evaluate (i). the total volume of the biomass, (ii). ratios of live and membrane-compromised cells, and (iii). to calculate biofilm volume reduction for individual organisms after the respective treatment types. The total biofilm volume was normalized by the area of the well and expressed as an average biofilm thickness. Complete data are provided in Supplementary Materials (Tables S1–S8).
(§6) At first, bacterial suspensions were cultivated in microtiter plates to produce overnight biofilms (18 h). […] cells were then washed out, and the remaining biofilms were further cultivated for an additional 20 h with selected compounds. Following biofilm cultivation, biomass was observed using CLSM with live/membrane-compromised cell staining. Biomass images from biofilm removal treatments were similar to results from biofilm prevention, where biomass was highly diversified across the bacterial species and strains. Visually, biomass images were fairly consistent within the quadruplicates for each tested organism. Non-treated biofilms of S. aureus contained consistent biomass spread across the well (S. aureus 816) or grown around the edges (S. aureus 1241). […] PI staining identified membrane-compromised cells spread across S. aureus 816 biomass and incorporated in the edge of biomass and/or in the central part of the well (Figure 4B,C). […] Membrane-compromised cells appeared contained around the edges (S. aureus 1241), disturbed across the well (in both strains of L. monocytogenes), or in separated biomass in the central part of the well (in both strains of E. coli when treated with the subinhibitory concentration of RLs) (Figure 4D,E).
(§7) For both inhibition and reduction of biofilms, overnight cultures from BHI were diluted in TSB + 1% Glc to reach an absorbance of 0.08 to 0.1 at 625 nm. The inoculum (150 µL) was transferred into wells of the 96-well flat-bottomed Ibidiμ-Plate (Ibidi, Gräfelfing, Germany) and mixed with 150 µL of each of the three tested substances in technical quadruplicates, followed by incubation at 37 °C for 24 h. Simultaneously, the prepared bacterial suspensions were inoculated to an additional microtiter plate (200 µL) and allowed to form biofilm overnight (18 h at 37 °C). After the incubation, the content of the well was drained off, and 200 µL of each of the three tested substances was added to the plate, which was then incubated for an additional 20 h. The used concentrations of the substances represented the subinhibitory and minimum inhibitory concentrations for metabolic activity (subCBM80, MICBM80; subCMPB80, MICMPB80). Both setups contained a positive control of the bacterial growth (inoculum mixed with sterile TSB + 1% Glc medium) and a control monitoring microbial contamination (sterile medium). Non-treated wells were used as a positive control for comparison between non-treated and treated biofilm mass.
(§8) Prior to the imaging, the wells were stained with the LIVE/DEAD® BacLight™ Bacterial Viability Kit (Thermo Fisher Scientific, MA, USA) following the manufacturer’s guidelines and Drago et al.. […]

The subject of another assay is S. aureus 1241. The experiment in a line: CLSM analysis, biofilm removal (preformed biofilm). The format is cell-based, Staphylococcus aureus. To be noted: 20 h exposure, mean ± SD; for Thickness (µm) MICBM80: substance at its MIC; for Thickness (µm) subCBM80: substance at subinhibitory concentration. As to the method:
as §5, §6, §7, §8

The subject of assay [1] is L. monocytogenes 164. The experiment in a line: MIC for biofilm metabolic activity (MTT reduction assay). The format is cell-based, Listeria monocytogenes. To be noted: ≥80% inhibition, 24 h. Here is the method: as §1
as §2, with “Furthermore, the sterile medium was included in the plate as a marker of potential microbial contamination.” left out, “The difference of A625nm was considered as a measure of the ability of cells to grow in the presence of the tested substances.” left out
as §3, §4
(Formazan colour is commonly taken as a measure of viable cells.)

For assay [2], the system named is L. monocytogenes 149. The description is as above. In kind it is cell-based, Listeria monocytogenes. To be noted: ≥80% inhibition, 24 h. Here is the method: as §1
as §2, with “Furthermore, the sterile medium was included in the plate as a marker of potential microbial contamination.” left out, “The difference of A625nm was considered as a measure of the ability of cells to grow in the presence of the tested substances.” left out
as §3, §4

Assay [3] deals with L. monocytogenes 164. Briefly: MIC for biofilm formation (crystal violet staining). The format is cell-based, Listeria monocytogenes. Particulars: ≥80% prevention, 24 h. Here is the method:
as §1
as §2, with “Furthermore, the sterile medium was included in the plate as a marker of potential microbial contamination.” left out, “The difference of A625nm was considered as a measure of the ability of cells to grow in the presence of the tested substances.” left out
as §3, §4

Assay [4] relates to L. monocytogenes 149. Described as above. In kind it is cell-based, Listeria monocytogenes. To be noted: ≥80% prevention, 24 h. As to the method:
as §1
as §2, with “Furthermore, the sterile medium was included in the plate as a marker of potential microbial contamination.” left out, “The difference of A625nm was considered as a measure of the ability of cells to grow in the presence of the tested substances.” left out
as §3, §4

The mark [5] stands for this setting: preformed biofilm, 20 h exposure, mean ± SD.

Each structure is given as a SMILES string.

Turning to `CC(=O)c1c(O)c(C)c(O)c2c1OC1=CC(=O)C(C(C)=O)C(=O)C12C` (single isomer, unassigned; (+)) [UA, (+)-usnic acid], in the assay on E. coli 693/17 (preformed biofilm, within tested concentrations), the “maximal achieved inhibition (MICBR80 not reached), biofilm reduction” value stood at 0%. Moreover, the MICBR80 in the assay on E. coli 693/17 is listed as > 31.3 µg/mL. Also, in the assay on S. aureus 816 (subinhibitory concentration), the “proportion of membrane-compromised cells” value was “up to 40%”. Further, the “Thickness (µm) subCBM80” value in the assay with S. aureus 816 (setting [5]) is 152 ± 68.6 µm; with S. aureus 1241 it was 251 ± 15.7 µm. The “Thickness (µm) MICBM80” value with S. aureus 1241 was 210 ± 32.5 µm. Also, the MICBM80 against L. monocytogenes 164 [1] and against L. monocytogenes 149 [2] was 1.96 µg/mL each time. Also, the MICBF80 is given as 1.96 µg/mL in the assay on L. monocytogenes 164 [3] and 0.98 µg/mL against L. monocytogenes 149 [4].

With `CC(=O)N[C@@H](CS)C(=O)O` [NAC, N-Acetyl-L-cysteine], the MICBR80 in the assay with E. coli 693/17 is 100,000 µg/mL. The “proportion of membrane-compromised cells” value with S. aureus 816 (MIC) is on record as “up to 20%”. Also, the “Thickness (µm) MICBM80” value with S. aureus 816 (preformed biofilm, 20 h exposure, substance at its MIC, mean ± SD) was found to be 156 ± 80.4 µm; in the assay with S. aureus 1241, 253 ± 44.4 µm. Besides, the “Thickness (µm) subCBM80” value in the assay with S. aureus 816 (setting [5]) was 247 ± 64.7 µm; in the assay with S. aureus 1241, 266 ± 37.9 µm. Further, the MICBM80 in the assay on L. monocytogenes 164 [1] is given as 6250 µg/mL; in the assay on L. monocytogenes 149 [2], 12,500 µg/mL. The MICBF80 in the assay on L. monocytogenes 164 [3] and in the assay with L. monocytogenes 149 [4] was 6250 µg/mL throughout.
